Test results from US3960860A, “2-Methyl-5,7-dihydrothieno-[3,4d]-pyrimidine” (priority 1975, dated 1976).

What was measured:
[1] = acute oral toxicity (LD50, no-effect dose); settings: in vivo
[2] = enhancement of the sweetness of foods; settings: in foods; levels as low as
Source text: (§1) It can thus be used as an enhancer to reduce the quantity of artificial sweeteners required or to permit diminution of the quantity of natural sweeteners such as sugar.

[3] = organoleptic evaluation (odor and flavor) of the pyrimidine
[4] = character of vanilla flavor; settings: 0.2 parts of 0.1% in propylene glycol; compared with the material omitted
Method: A vanilla flavor is prepared by admixing the following ingredients: […]

[5] = fragrance of perfume composition; settings: thienopyrimidine replaces 20 parts of caraway essence
[6] = taste of aqueous solutions; settings: by itself at levels of 10 parts in 10^10, aqueous solutions
Source text: as §1

[7] = comparison of toxicity and potency with the chloroanalog; settings: versus other analogs, such as its chloroanalog
[8] = 0.1% alcohol solution on a blotter strip

Cc1ncc2c(n1)CSC2 [2-methyl-5,7-dihydrothieno-[3,4d]-pyrimidine]
NOAEL ([1]; po, test animals, read-out: maximum no effective dose or the lowest dosage level at which essentially no signs of toxicity in test animals is observed): 34 mg/kg | LD50 ([1]; acute, oral): 260 ± 40 mg/kg | level at which the material begins to enhance the sweetness of foods [2]: 10 parts in 10^12 | odor/flavor character in aqueous solution ([3]; 0.001 ppm in aqueous solution): sweet roasted nut, popcorn character with a light astringency | flavor in water ([3]; 0.003 ppm in water): popcorn, roasted peanut flavor with an astringency like peanut skins | odor [3, 8]: sharp, fresh roasted, sweet nut with a popcorn character | persistence of odor [3, 8]: the odor seems to disappear because of anosmia | flavor effect in chicken broth ([3]; 10^^-6 ppm in chicken broth): accentuates the root vegetable flavor notes | odor of the crystalline material ([3]; colorless crystalline material): powerful odor of roasted fresh, sweet nut with a definite popcorn character | quality of vanilla flavor [4]: distinctly "natural" quality | caraway note after replacement of caraway essence [5]: the natural caraway note of the original perfume is retained | aftertaste imparted to aqueous solutions [6]: sweet, pleasant, and non-bitter aftertaste | potency relative to other analogs [7]: less potent | toxicity relative to other analogs [7]: less toxic
